Test results reported in US20250041327A1, “COMPOSITIONS FOR PREVENTING OR FOR REDUCING RISK OF […] INFECTIOUS DISEASES” (priority 2021, published 2025).

Tests used:
ZO-1 = type: cell-based, human; conditions: A549 cells, EPS pre-treatment study; BXA 250 nM; viral-infection vs non-viral infection group
occludin = type: cell-based, human; conditions: A549 cells, EPS pre-treatment study; BXA 250 nM; viral-infection vs non-viral infection group
claudin-1 = type: cell-based, human; conditions: A549 cells, EPS pre-treatment study; BXA 250 nM; viral-infection vs non-viral infection group
E-cadherin = type: cell-based, human; conditions: A549 cells, EPS pre-treatment study; BXA 250 nM; viral-infection vs non-viral infection group
ICAM-1 = type: cell-based, human; conditions: infected A549 cells, 1×10^5 pfu virus; BXA 250 nM
VCAM-1 = type: cell-based, human; conditions: infected A549 cells, 1×10^5 pfu virus; BXA 250 nM
fibronectin = type: cell-based, human; conditions: infected A549 cells, 1×10^5 pfu virus; BXA 250 nM
PAF-r = type: cell-based, human; conditions: infected A549 cells, 1×10^5 pfu virus; BXA 250 nM
E-selectin = type: cell-based, human; conditions: infected A549 cells, 1×10^5 pfu virus; BXA 250 nM
[1] = test system: S. aureus strain ATCC 29213; type: cell-based; conditions: 1×10^5 pfu virus, 1×10^5 cfu S. aureus for 1 hour; 400 μg EPS or 250 nM BXA per well; compared with virus-infected cells without treatment
CEACAM-1 = CEACAM-1 mRNA expression in virus-infected A549 cells (quantitative RT-PCR); conditions: 1×10^5 pfu virus, 1 hour with EPS then 6 hours, BXA 250 nM, compared with virus-infected cells

O=C1c2c(O)c(=O)ccn2N([C@@H]2c3ccccc3SCc3c2ccc(F)c3F)[C@@H]2COCCN12 [BXA, baloxavir acid]
ZO-1 mRNA expression (ZO-1): no difference
occludin mRNA expression (occludin): no difference
claudin-1 mRNA expression (claudin-1): no difference
E-cadherin mRNA expression (E-cadherin): no difference
ICAM-1 mRNA expression (ICAM-1): not changed
VCAM-1 mRNA expression (VCAM-1): not changed
fibronectin mRNA expression (fibronectin): not changed
PAF-r mRNA expression (PAF-r): not changed
E-selectin mRNA expression (E-selectin): not changed
numbers of adhered bacteria on virus-infected A549 cells [1]: did not decrease
CEACAM-1 mRNA expression increased by influenza virus infection (CEACAM-1): significantly reduced
